In US5534416A, “Fluorescent viability assay using cyclic-substituted unsymmetrical cyanine dyes” (Molecular Probes, Inc., priority 1993, dated 1996):

Assays:
[1] = system: nucleic acids; conditions: cited from earlier work
[2] = system: intact cells; conditions: cited from earlier work
[3] = system: prokaryotic microbes; conditions: Kaneshiro et al. 1993; cited from earlier work
[4] = system: B. cereus; test: Fluorescence per cell, stained bacteria (microtiter plate reader); assay type: cell-based, Bacillus cereus; conditions: optimal dye concentration, corrected for cell number
Protocol: (§1) 1. Measured in a fluorescence microtiter plate reader with extraction and
(§2) emission filters at 485+/-10 and 530+/-12, respectively. Fluorescence dat
(§3) are corrected for cell number; but are not corrected for cell volume or
(§4) 2. Optimal dye concentrations determined as in Example 3.
(§5) 3. Suspension concentrations as used for Example 3.
(§6) A culture of E. coli is washed by centrifugation and resuspended in water to its original volume. Using Corning 96-well microtiter plates with flat bottoms, 150 μL volumes of suspension are loaded per well. A single well of sterile water is the well background standard. Using a Dynatech MR600 microplate reader equipped with a 410 nm filter, absorbance is determined for the initial volumes of suspension. The suspension is diluted seven times by serial ten-fold dilutions in water, 150 μL of suspension per well, and the absorbance measured for each dilution. Following the absorbance measurements, each dilution loaded into wells is further diluted 1:10 and plated in duplicate on nutrient growth agar. The colonies are counted and expressed as colony forming units per milliliter (cfu/mL). Using the turbidity of the dilution in the microtiter plate, the suspension is diluted to a density of about 1×10^9 cfu/mL.
(§7) The bacteria suspension, adjusted to a known density as described above, is diluted seven times by serial ten-fold dilutions in water; 150 μL of suspension per well. Three-fold serial dilutions of dye are used (30-0.04 μM); 50 μL of dye at 4× final concentration. Using Corning 96-well microtiter flat-bottom plates, a matrix is set up whereby the cell concentration decreases across the plate and the dye concentration decreases down the plate, final volume per well is 200 μL. The top row and first column are reserved for the control, sterile water. The plate is incubated at 37° C. for 30 minutes, then read in a Millipore Cytofluor™ 2350 96-well fluorescence microplate reader at a fixed excitation of 485+/-10 nm and each of three emission wavelengths, 530+/-12, 620+/-20, or 645+/-20 nm. The results determine the best dye range (30-1 μM) and the best cell concentrations (concentrated through first three ten-fold dilutions) for optimal dye loading. […] Using the four dye dilutions and the four bacterial dilutions, many bacteria and dyes can be assayed quickly. The data collected allow the determination of optimal dye and cell concentration required for maximal fluorescence intensity per cell.

[5] = system: M. luteus; test: as above; assay type: cell-based, Micrococcus luteus; conditions: optimal dye concentration, corrected for cell number
Protocol: as §1, §2, §3, §4, §5, §6, §7

[6] = system: S. pyogenes; test: as above; assay type: cell-based, Streptococcus pyogenes; conditions: optimal dye concentration, corrected for cell number
Protocol: as §1, §2, §3, §4, §5, §6, §7

[7] = system: S. aureus; test: as above; assay type: cell-based, Staphylococcus aureus; conditions: for Fluorescence/Cell (ex 485/em 530): S. aureus, optimal dye concentration, corrected for cell number; for Normalized Fluorescence/cell (ex 485 nm/em 530 nm), Staphylococcus aureus: scaled to thiazole orange
From the text: as §1, §2, §3, §4, §5
(§8) Factors such as degree of fluorescence enhancement with nucleic acid binding, self quenching, molar extinction coefficient, membrane permeability, intracellular partitioning, nucleic acid binding affinity, and quantum yield contribute to the overall fluorescence of nucleic acid stains in cells. Enhanced cell fluorescence obtained with Dye I is related to unexpected properties other than quantum yield alone. Quantum yield is determined as described above (foot note to Table 2). Normalized quantum yield is determined to illustrate the fold-change in quantum yield of Dye I compared with thiazole orange, a related cell-permeant dye. The normalized fluorescence values represent the quantum yield of each dye divided by the quantum yield of thiazole orange. Fluorescence per cell is also scaled to thiazole orange values for both E. coli and S. aureus to allow direct comparison between relative (normalized) quantum yield and relative (normalized) fluorescence/cell.
as §6, §7

[8] = system: E. coli; test: as above; assay type: cell-based, Escherichia coli; conditions: for Fluorescence/Cell (ex 485/em 530): E. coli, optimal dye concentration, corrected for cell number; for Normalized Fluorescence/cell (ex 485 nm/em 530 nm), Escherichia coli: scaled to thiazole orange
From the text: as §1, §2, §3, §4, §5, §8, §6, §7

[9] = system: S. oranienburg; test: as above; assay type: cell-based, Salmonella oranienburg; conditions: optimal dye concentration, corrected for cell number
Protocol: as §1, §2, §3, §4, §5, §6, §7

[10] = system: K. pneumonia; test: as above; assay type: cell-based, Klebsiella pneumonia; conditions: optimal dye concentration, corrected for cell number
Protocol: as §1, §2, §3, §4, §5, §6, §7

[11] = system: S. sonnei; test: as above; assay type: cell-based, Shigella sonnei; conditions: optimal dye concentration, corrected for cell number
Protocol: as §1, §2, §3, §4, §5, §6, §7

[12] = system: P. aeruginosa; test: as above; assay type: cell-based, Pseudomonas aeruginosa; conditions: optimal dye concentration, corrected for cell number
Protocol: as §1, §2, §3, §4, §5, §6, §7

[13] = system: nucleic acids; test: Excitation/emission maxima of dyes complexed with nucleic acids; assay type: physicochemical; parameters: key: wavelength in nm; conditions: Table 2; dye complexed with nucleic acids
From the text: Dye I is lightly colored and is virtually non-fluorescent when diluted in aqueous solution according to the method of the invention. Dye I is highly membrane-permeant and labels all cells, whether live or dead. When Dye I binds with intracellular nucleic acid polymers such as DNA and RNA, the resultant dye-nucleic acid complex becomes extremely fluorescent upon illumination. The quantum yield of the preferred Dye I/DNA complex is greater than 0.02, typically greater than 0.1, preferably greater than 0.2, and more preferably greater than 0.3. Typically, Dye I combines with intracellular nucleic acids to give a green or red fluorescence. When excited at a wavelength between about 300 nm and about 500 nm, the dyes complexed with nucleic acids have an emission maximum between about 500 and about 610 nm (see Table 2). Preferably, Dye I complexed with nucleic acids has an emission maximum of between about 500 nm and about 535 nm, resulting in a true green fluorescent signal in cells of the sample where Dye I is present alone.

[14] = system: DNA; test: Quantum yield of dye on DNA versus fluorescein; assay type: physicochemical; conditions: for Normalized QY: QY divided by QY of thiazole orange; for QY (DNA): Table 2, Tris buffered saline pH 10, fluorescein assumed 0.92; for QY: Table 7, on DNA, fluorescein reference
From the text: ^ Quantum yield (QY) of dye on DNA (standard solution in Tris buffere
saline adjusted to pH 10) in comparison with fluorescein, which is assume
to have a quantum yield of 0.92 under the test conditions.
as §8

[15] = system: calf thymus DNA; conditions: Table 5; bound to excess calf thymus DNA (50 bp/dye); cited from earlier work

| Compound | Fluorescence/Cell (ex 485/em 530) [4] | Fluorescence/Cell (ex 485/em 530) [5] | Fluorescence/Cell (ex 485/em 530) [6] | Fluorescence/Cell (ex 485/em 530) [7] | Normalized Fluorescence/cell (ex 485 nm/em 530 nm), Staphylococcus aureus [7] | Fluorescence/Cell (ex 485/em 530) [8] | Normalized Fluorescence/cell (ex 485 nm/em 530 nm), Escherichia coli [8] | Fluorescence/Cell (ex 485/em 530) [9] | Fluorescence/Cell (ex 485/em 530) [10] | Fluorescence/Cell (ex 485/em 530) [11] | Fluorescence/Cell (ex 485/em 530) [12] | EM max [13] | EX max [13] | Normalized QY [14] | QY (DNA) [14] | QY [14] | further results |
| --- | --- | --- | --- | --- | --- | --- | --- | --- | --- | --- | --- | --- | --- | --- | --- | --- | --- |
| CCOc1ccc(-c2nc3ccc(-c4nc5ccc(N6CCN(C)CC6)cc5[nH]4)cc3[nH]2)cc1 [Hoechst 33342] | – | – | – | – | – | – | – | – | – | – | – | – | – | – | – | – | excitability of nucleic acid complex ([1]; background): only excitable with UV light; spectral overlap of DNA-bound dye with cellular autofluorescence ([1]; background): overlap significantly with cellular autofluorescence |
| CN(C)c1ccc2cc3ccc(N(C)C)cc3nc2c1 [acridine orange] | – | – | – | – | – | – | – | – | – | – | – | – | – | – | – | – | fluorescence enhancement upon binding to nucleic acids ([1]; background): about two-fold; background signal [1]: high background signal |
| N=C(N)c1ccc(-c2cc3ccc(C(=N)N)cc3[nH]2)cc1 [DAPI] | – | – | – | – | – | – | – | – | – | – | – | – | – | – | – | – | excitability of nucleic acid complex ([1]; background): only excitable with UV light; spectral overlap of DNA-bound dye with cellular autofluorescence ([1]; background): overlap significantly with cellular autofluorescence |
| Calcein AM | – | – | – | – | – | – | – | – | – | – | – | – | – | – | – | – | T1/2 (time for half of dye to leak from intact cells) ([2]; 37° C., up to): up to 3 hour; Loading ([2]; in words): Easily loaded; Retention ([2]; in words): very good; pH sensitivity ([2]; in words): not very; usefulness with prokaryotic microbes versus eukaryotic microbes [3]: less useful with cells from prokaryotic microbes |
| CC1=CC(=Cc2sc3ccccc3[n+]2C)c2ccccc2N1c1ccccc1 [compound 613] | 242 | 75 | 0.02 | 10 | 3.1 | 12 | 6 | 10 | 10 | 6 | 6 | 523 | 506 | 1.8 | 0.33 | 0.33 | – |
| C[n+]1c(C=C2C=C(Cl)N(c3ccccc3)c3ccccc32)sc2ccccc21 [compound 591] | 58 | 375 | < 0.01 | 3 | 0.9 | 2 | 1 | 2 | 2 | 1 | 1 | 532 | 509 | 0.5 | 0.09 | 0.09 | – |
| C[n+]1c(C=C2C=CN(c3ccccc3)c3ccccc32)sc2ccccc21 [dye 63] | 93 | 33 | 0.01 | 5 | 1.6 | 6 | 3 | 4 | 5 | 3 | 3 | 531 | 514 | 1.3 | 0.24 | 0.24 | – |
| CCN(CC)C1=CC(=Cc2sc3ccccc3[n+]2C)c2ccccc2N1c1ccccc1 [compound 619] | 827 | 149 | 0.06 | 47 | 14.7 | 26 | 13 | 18 | 12 | 13 | 16 | 517 | 488 | 3.4 | 0.62 | 0.62 | – |
| CN1C(=Cc2cc[n+](C)c3ccccc23)Sc2ccccc21 [Thiazole Orange, reference compound] | 51 | 21 | < 0.01 | 3.2 | 1.0 | 2 | 1 | 1 | 3 | 1 | 2 | 530 | 510 | 1.0 | 0.18 | 0.18 | EM max [15]: 525 nm; EX max [15]: 509 nm |
| Nc1ccc2c(c1)c(-c1ccccc1)[n+](CCCNCCNCCC[n+]1c(-c3ccccc3)c3cc(N)ccc3c3ccc(N)cc31)c1cc(N)ccc21 [ethidium homodimer] | – | – | – | – | – | – | – | – | – | – | – | – | – | – | – | – | usefulness with prokaryotic microbes versus eukaryotic microbes [3]: less useful with cells from prokaryotic microbes |
